Test results from PubChem BioAssay (NCI).
“And” between values parts separate entries of the source, which are not always exact repeats. Equal entries are not always repeated.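 All cell lines were grown in 96-well plates and treated with compound for 48 hours. Here, GI50 denotes the concentration required for 50% inhibition of growth. TGI denotes the concentration required for complete inhibition of growth.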

Tested on: OVCAR-8 ovarian
Experiment: NCI tumour cell line growth inhibition, 48 h

Row | Structure (SMILES) | GI50 | TGI
1 | CN(C)c1ccc(/C=C\C2=[N+](C)c3ccccc3C2(C)C)cc1 | 0.614 µM | > 41.1 µM
2 | CC(=O)OC1OC([C@@H]2c3cccc(O)c3C(=O)c3c(O)cc(C)cc32)C(O)C(O)C1O (some centres undefined) | 0.122 µM | 4 µM
3 | Nc1nc(-n2c(-c3ccccc3)nc3c(Br)cc(Br)cc3c2=O)nnc1-c1cccc(Cl)c1Cl | 17.2 µM | > 100 µM
4 | C[N+](C)(C)CC(=O)N/N=C(/CC(=O)CC(C1=C(O)c2ccccc2OC1)c1ccccc1)C(=O)Nc1cccc(Cl)c1 (centres undefined) |  | > 100 µM
5 | O=C1/C(=C/c2ccc(O)c(O)c2)CCC/C1=C\c1ccc(O)c(O)c1 |  | 4.42 µM
6 | COC(=O)/C=C1\S/C(=N\NC(=O)c2cc3ccc2/C=C\c2ccc(cc2)/C=C\3)N(c2ccccc2)C1=O | 3.08 µM | > 100 µM
7 | COC([CH2][Hg][n]1cnc2c1c(=O)n(C)c(=O)n2C)CN1C(=O)c2ccccc2S1(=O)=O (centres undefined) | > 100 µM | > 100 µM
8 | COc1ccc(CC2c3cc4c(cc3CCN2C)OCO4)c(C=O)c1OC (centres undefined) |  | > 100 µM
9 | CN1CCCCC1CCN1c2ccccc2Sc2ccc(Cl)cc21 (centres undefined) | 3.83 µM | 12.5 µM
10 | C=C(C)C(OC)C(O)CC1(C)CC(O)CC(C)(C2CCC3OC(C4(C)CCC(Br)C(C)(C)O4)CCC3(C)O2)O1 (centres undefined) | 21.1 µM | 50.2 µM
11 | Cc1cc(-c2nc(C(=O)Nc3cc4oc(N5CCOCC5)nc4nc3N3CC[C@@H](O)C3)co2)ccn1 | 38.7 µM | > 100 µM
12 | COc1cc2c(cc1OCCCCN1CCN(CC(=O)Nc3ccc(Cl)cc3C(=O)c3ccccc3Cl)CC1)N=CC1CCCN1C2=O (centres undefined) | 0.327 µM | 1.09 µM
13 | FC(F)(F)c1cccc(Nc2nc(-c3ccccc3)nc3ncccc23)c1 | 3.74 µM | 18.2 µM
14 | O=C(Nc1ccccc1)c1c(O)[nH]c(=S)[nH]c1=O | 41.3 µM | 76.7 µM and > 250 µM
15 | OC1CSSC1Cn1cnc2c(Nc3ccc(OCc4cccc(F)c4)c(Cl)c3)ncnc21 (centres undefined) | 3.71 µM | 12 µM
16 | Nc1c(C(=O)c2cccc(CCS(N)(=O)=O)c2)cnn1-c1ccc(F)cc1 | > 25 µM | > 25 µM
17 | OCc1cc2ccccc2c2c3c(ccc12)OCO3 | 29.2 µM | 199 µM
18 | COc1cnc2c(c1)C(=O)c1c-2n(CCCN2CCOCC2)c(=O)c2cc(F)ccc12 | 0.246 µM | > 100 µM
19 | C[C@@H](Oc1cc(-n2cnc3ccc(CN4CCN(C)CC4)cc32)sc1C(N)=O)c1ccccc1C(F)(F)F | < 0.0153 µM and 0.0146 µM | 13.6 µM and > 10 µM
20 | CCOC1Oc2ccccc2C(=O)/C1=C/Nc1ccc(C(C)=O)cc1 (centres undefined) | 16.3 µM | 45 µM
21 | COc1cccc(-c2cc(-c3cccc(NS(C)(=O)=O)c3)nc(N)c2C#N)c1O | 0.351 µM | > 100 µM
22 | Cc1ccsc1C(=S)Nc1ccc(Cl)c(/C=N/OC(C)(C)C)c1 |  | > 100 µM
23 | NC(N)=NS(=O)(=O)c1ccc(Nc2c3ccccc3nc3c(C(=O)NCCO)cccc23)cc1 | 29.8 µM | 
24 | COc1cccc(C2c3cc4c(cc3OC(C)(N3CCCC3)C2C)OCO4)c1O (centres undefined) |  | 40 µM
25 | CCN(CC)N=Nc1c(C(N)=O)n[nH]c1C |  | > 100 µM
26 | O=C1NC(=NCCc2cccc(F)c2)S/C1=C\c1ccc2ncccc2c1 | 12.8 µM | > 25 µM
27 | Cc1ccc2c(C)c3c(ccc4ccccc43)c[n+]2c1 | 6.35 µM | 25.4 µM

Tested on: DU-145 prostate
Experiment: NCI tumour cell line growth inhibition, 48 h

Row | Structure (SMILES) | GI50 | TGI
28 | CN(C)c1ccc(/C=C\C2=[N+](C)c3ccccc3C2(C)C)cc1 | 0.473 µM | 27 µM
29 | CC(=O)OC1OC([C@@H]2c3cccc(O)c3C(=O)c3c(O)cc(C)cc32)C(O)C(O)C1O (some centres undefined) | 0.137 µM | 1.69 µM
30 | Nc1nc(-n2c(-c3ccccc3)nc3c(Br)cc(Br)cc3c2=O)nnc1-c1cccc(Cl)c1Cl | 27.3 µM | > 100 µM
31 | C[N+](C)(C)CC(=O)N/N=C(/CC(=O)CC(C1=C(O)c2ccccc2OC1)c1ccccc1)C(=O)Nc1cccc(Cl)c1 (centres undefined) |  | > 100 µM
32 | O=C1/C(=C/c2ccc(O)c(O)c2)CCC/C1=C\c1ccc(O)c(O)c1 |  | 17.5 µM
33 | COC(=O)/C=C1\S/C(=N\NC(=O)c2cc3ccc2/C=C\c2ccc(cc2)/C=C\3)N(c2ccccc2)C1=O | 5.11 µM | 35.3 µM
34 | COC([CH2][Hg][n]1cnc2c1c(=O)n(C)c(=O)n2C)CN1C(=O)c2ccccc2S1(=O)=O (centres undefined) | > 100 µM | > 100 µM
35 | COc1ccc(CC2c3cc4c(cc3CCN2C)OCO4)c(C=O)c1OC (centres undefined) |  | > 100 µM
36 | CN1CCCCC1CCN1c2ccccc2Sc2ccc(Cl)cc21 (centres undefined) | 5.5 µM | 17.6 µM
37 | C=C(C)C(OC)C(O)CC1(C)CC(O)CC(C)(C2CCC3OC(C4(C)CCC(Br)C(C)(C)O4)CCC3(C)O2)O1 (centres undefined) | 17.3 µM | 32 µM
38 | Cc1cc(-c2nc(C(=O)Nc3cc4oc(N5CCOCC5)nc4nc3N3CC[C@@H](O)C3)co2)ccn1 | 46.9 µM | > 100 µM
39 | COc1cc2c(cc1OCCCCN1CCN(CC(=O)Nc3ccc(Cl)cc3C(=O)c3ccccc3Cl)CC1)N=CC1CCCN1C2=O (centres undefined) | 0.277 µM | 0.791 µM
40 | FC(F)(F)c1cccc(Nc2nc(-c3ccccc3)nc3ncccc23)c1 | 4.72 µM | 21.8 µM
41 | O=C(Nc1ccccc1)c1c(O)[nH]c(=S)[nH]c1=O |  | 103 µM
42 | OC1CSSC1Cn1cnc2c(Nc3ccc(OCc4cccc(F)c4)c(Cl)c3)ncnc21 (centres undefined) | 1.19 µM | 4.95 µM
43 | Nc1c(C(=O)c2cccc(CCS(N)(=O)=O)c2)cnn1-c1ccc(F)cc1 | > 25 µM | > 25 µM
44 | OCc1cc2ccccc2c2c3c(ccc12)OCO3 | 44 µM | 170 µM
45 | COc1cnc2c(c1)C(=O)c1c-2n(CCCN2CCOCC2)c(=O)c2cc(F)ccc12 | 0.341 µM | > 100 µM
46 | C[C@@H](Oc1cc(-n2cnc3ccc(CN4CCN(C)CC4)cc32)sc1C(N)=O)c1ccccc1C(F)(F)F | < 0.0134 µM and 0.00975 µM | 0.652 µM and 0.188 µM
47 | CCOC1Oc2ccccc2C(=O)/C1=C/Nc1ccc(C(C)=O)cc1 (centres undefined) | 29.6 µM | > 100 µM
48 | COc1cccc(-c2cc(-c3cccc(NS(C)(=O)=O)c3)nc(N)c2C#N)c1O | 0.182 µM | > 100 µM
49 | Cc1ccsc1C(=S)Nc1ccc(Cl)c(/C=N/OC(C)(C)C)c1 |  | > 100 µM
50 | NC(N)=NS(=O)(=O)c1ccc(Nc2c3ccccc3nc3c(C(=O)NCCO)cccc23)cc1 | 15.3 µM | 
51 | COc1cccc(C2c3cc4c(cc3OC(C)(N3CCCC3)C2C)OCO4)c1O (centres undefined) |  | 15.3 µM
52 | CCN(CC)N=Nc1c(C(N)=O)n[nH]c1C |  | > 100 µM
53 | O=C1NC(=NCCc2cccc(F)c2)S/C1=C\c1ccc2ncccc2c1 | 10.1 µM | > 25 µM
54 | Cc1ccc2c(C)c3c(ccc4ccccc43)c[n+]2c1 | 14.7 µM | 40.6 µM

Tested on: SW-620 colon
Experiment: NCI tumour cell line growth inhibition, 48 h

Row | Structure (SMILES) | GI50 [µM] | TGI [µM]
55 | CN(C)c1ccc(/C=C\C2=[N+](C)c3ccccc3C2(C)C)cc1 | 0.399 | 19.1
56 | CC(=O)OC1OC([C@@H]2c3cccc(O)c3C(=O)c3c(O)cc(C)cc32)C(O)C(O)C1O (some centres undefined) | 0.0231 | 1.73
57 | Nc1nc(-n2c(-c3ccccc3)nc3c(Br)cc(Br)cc3c2=O)nnc1-c1cccc(Cl)c1Cl | 5.15 | > 100
58 | C[N+](C)(C)CC(=O)N/N=C(/CC(=O)CC(C1=C(O)c2ccccc2OC1)c1ccccc1)C(=O)Nc1cccc(Cl)c1 (centres undefined) |  | > 100
59 | O=C1/C(=C/c2ccc(O)c(O)c2)CCC/C1=C\c1ccc(O)c(O)c1 |  | 23.3
60 | COC(=O)/C=C1\S/C(=N\NC(=O)c2cc3ccc2/C=C\c2ccc(cc2)/C=C\3)N(c2ccccc2)C1=O | 1.85 | 3.66
61 | COC([CH2][Hg][n]1cnc2c1c(=O)n(C)c(=O)n2C)CN1C(=O)c2ccccc2S1(=O)=O (centres undefined) | > 100 | > 100
62 | COc1ccc(CC2c3cc4c(cc3CCN2C)OCO4)c(C=O)c1OC (centres undefined) |  | > 100
63 | CN1CCCCC1CCN1c2ccccc2Sc2ccc(Cl)cc21 (centres undefined) | 2.87 | 10.1
64 | C=C(C)C(OC)C(O)CC1(C)CC(O)CC(C)(C2CCC3OC(C4(C)CCC(Br)C(C)(C)O4)CCC3(C)O2)O1 (centres undefined) | 21 | 45.4
65 | Cc1cc(-c2nc(C(=O)Nc3cc4oc(N5CCOCC5)nc4nc3N3CC[C@@H](O)C3)co2)ccn1 | 28.4 | > 100
66 | COc1cc2c(cc1OCCCCN1CCN(CC(=O)Nc3ccc(Cl)cc3C(=O)c3ccccc3Cl)CC1)N=CC1CCCN1C2=O (centres undefined) | 0.238 | 0.726
